Test systems include NCI-H226 lung; HOP-62 NSCLC; SK-MEL-5 melanoma; BT-549 breast; SK-MEL-2 melanoma; NCI-H23 lung; HS 578T breast; NCI-H460 lung; DU-145 prostate; IGROV1 ovarian.
Common to all, as to assay: growth of human tumour cells (NCI), 48 h

SMILES strings stand for the structures.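 Briefly, cells in 96-well plates were exposed to five compound concentrations for 48 h, and endpoints were estimated by linear interpolation. Definition used: TGI = concentration required for complete inhibition of growth.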

Consider `O=C(NCc1cccnc1)NCc1cccnc1`, for which the TGI in the experiment on NCI-H226 lung, in the experiment on HOP-62 NSCLC, in the experiment on SK-MEL-5 melanoma, in the experiment on BT-549 breast, in the experiment on SK-MEL-2 melanoma and in the experiment with NCI-H23 lung was over 100 µM each time. Moreover, the TGI with HS 578T breast, in the experiment with NCI-H460 lung, with DU-145 prostate and in the experiment with IGROV1 ovarian was over 100 µM each time.
Turning to `O=C(O[C@H]1[C@@H](O)[C@H](n2cnc3c(Cl)ncnc32)O[C@@H]1COC(c1ccccc1)(c1ccccc1)c1ccccc1)c1ccccc1`, the TGI with NCI-H226 lung was over 100 µM; in the experiment with HOP-62 NSCLC, 51.7 µM; in the experiment with SK-MEL-5 melanoma, 31.8 µM; with BT-549 breast, 97.7 µM; with SK-MEL-2 melanoma, 49.7 µM; in the experiment on NCI-H23 lung it was over 100 µM. Besides, the TGI in the experiment with HS 578T breast is 8.78 µM; in the experiment with NCI-H460 lung, 64.9 µM; in the experiment with DU-145 prostate it was 3.85 µM; in the experiment on IGROV1 ovarian it was over 100 µM.
Regarding `O=c1cc(-c2cccc(Cl)c2)[nH]c2ncccc12`, the TGI is over 100 µM in the experiment on NCI-H226 lung; 33.4 µM in the experiment with HOP-62 NSCLC; 1.92 µM in the experiment with SK-MEL-5 melanoma; over 100 µM with BT-549 breast; over 86.5 µM in the experiment on SK-MEL-2 melanoma; over 100 µM in the experiment with NCI-H23 lung. Also, the TGI was 13 µM in the experiment with HS 578T breast, over 100 µM in the experiment with NCI-H460 lung, over 100 µM in the experiment on DU-145 prostate and over 58.9 µM in the experiment on IGROV1 ovarian.
Regarding `COc1ccc(NC2Oc3cc4c(cc3C(c3cccc(OC)c3OC)C2C)OCO4)cc1` (stereo not given), the TGI in the experiment with NCI-H226 lung was over 100 µM; in the experiment with HOP-62 NSCLC, over 100 µM; with SK-MEL-5 melanoma, 56 µM; in the experiment with BT-549 breast, over 100 µM; in the experiment with SK-MEL-2 melanoma it was 70.2 µM; in the experiment on NCI-H23 lung, 79.5 µM. Further, the TGI is 61.5 µM in the experiment with HS 578T breast, over 100 µM with NCI-H460 lung, over 100 µM in the experiment on DU-145 prostate and over 100 µM in the experiment with IGROV1 ovarian.
`COC(=O)C1C(OC(=O)c2ccccc2)CC2CCC1N2C(N)=O` (stereo not given): the TGI with NCI-H226 lung, with HOP-62 NSCLC, in the experiment with SK-MEL-5 melanoma, in the experiment on BT-549 breast, with SK-MEL-2 melanoma and in the experiment with NCI-H23 lung was over 100 µM each time. The TGI in the experiment on HS 578T breast, in the experiment with NCI-H460 lung, in the experiment on DU-145 prostate and in the experiment on IGROV1 ovarian was over 100 µM throughout.
With `CCCN(C(=O)c1c(Cl)nnc(Cl)c1C(=O)c1cc(Cl)nnc1Cl)c1cc(Cl)nnc1Cl`, the TGI with NCI-H226 lung was determined as 57.3 µM; in the experiment with HOP-62 NSCLC it was 48.8 µM; in the experiment on SK-MEL-5 melanoma, 21.4 µM; in the experiment on BT-549 breast, 32.9 µM; with SK-MEL-2 melanoma, 33.3 µM; with NCI-H23 lung, 20.3 µM. For the same compound, the TGI came out at 14.9 µM in the experiment with HS 578T breast, 70.4 µM in the experiment with NCI-H460 lung, 27.6 µM in the experiment with DU-145 prostate and 21.2 µM with IGROV1 ovarian.
Regarding `COc1nc(N)c(NC2OC(CO)C(O)C2O)c(=O)[nH]1` (stereo not given), the TGI with NCI-H226 lung, in the experiment with HOP-62 NSCLC, in the experiment on SK-MEL-5 melanoma, with BT-549 breast, in the experiment on SK-MEL-2 melanoma and in the experiment with NCI-H23 lung was over 100 µM each time. Further, the TGI in the experiment with HS 578T breast, with NCI-H460 lung, in the experiment on DU-145 prostate and in the experiment with IGROV1 ovarian was over 100 µM throughout.
On to `O=C(NNC1=NCCN1)c1ccco1`, for which the TGI in the experiment on NCI-H226 lung, in the experiment with HOP-62 NSCLC, in the experiment on SK-MEL-5 melanoma, in the experiment with BT-549 breast, in the experiment with SK-MEL-2 melanoma and in the experiment with NCI-H23 lung was over 100 µM throughout. In addition, the TGI in the experiment on HS 578T breast, in the experiment with NCI-H460 lung, in the experiment on DU-145 prostate and in the experiment on IGROV1 ovarian was over 100 µM throughout.
Turning to `Fc1ccc2nc3n(c2c1)C(c1c(F)cccc1F)SC3` (stereo not given), the TGI in the experiment on NCI-H226 lung, with HOP-62 NSCLC, in the experiment on SK-MEL-5 melanoma, in the experiment with BT-549 breast, in the experiment on SK-MEL-2 melanoma and in the experiment with NCI-H23 lung was over 100 µM throughout. The TGI in the experiment on HS 578T breast, in the experiment on NCI-H460 lung, in the experiment on DU-145 prostate and with IGROV1 ovarian was over 100 µM in each case.
Take `Cc1n[nH]c(=O)c2cc(-c3ccccc3)[nH]c12`: the TGI was over 100 µM in the experiment on NCI-H226 lung; over 100 µM with HOP-62 NSCLC; over 100 µM in the experiment on SK-MEL-5 melanoma; over 100 µM with BT-549 breast; 91.1 µM in the experiment with SK-MEL-2 melanoma; over 100 µM in the experiment on NCI-H23 lung. In addition, the TGI in the experiment with HS 578T breast, in the experiment with NCI-H460 lung, in the experiment with DU-145 prostate and in the experiment with IGROV1 ovarian was over 100 µM each time.

The record behind these values is PubChem BioAssay (NCI).
